{"source": "paper PMC10756276", "about": "“Highly specific σ2R/TMEM97 ligand FEM-1689 alleviates neuropathic pain and inhibits the integrated stress response” (Proceedings of the National Academy of Sciences of the …, 2023)", "tested_on": "p-eIF2α in HEK293T cells", "experiment": "p-eIF2α ICC and spectrophotometry in HEK293T cells", "assay_type": "cell-based, human", "procedure": "The ICC protocol was based on a previously published protocol ([76]). […] Cells were blocked with 10% normal goat serum (NGS) in PBS-triton X (0.1%). […] Antibodies were incubated at 4 °C overnight. […] It was washed with PBS twice. […] Images were analyzed using Olympus CellSens. […] Number of cells analyzed are detailed in SI Appendix, Tables S3 and S4.\nHuman embryonic kidney (HEK) 293 T cells (ATCC # CRL-3216) were generously donated by the Campbell Lab (UT Dallas). Cells were grown at 37 °C with 5% CO2 in complete medium (10% FBS, 1% Pen-Strep in DMEM/F12 + GlutaMax (Gibco #10565-018) in T-75 flasks (Greiner Bio-One #658175). In a 96-well plate (ThermoFisher #165305), cells were plated at a density of 20,000 cells per well and grown to roughly 65% confluency before being treated with FEM-1689. For 2-h FEM-1689 treatment, HEK cells were plated at a density of 32,000 cells per well and treated at roughly 85% confluency. Three to five replicates were made per condition/dose (1/2 log steps ranging from 0.1 to 1,000 nM). ICC was performed to label p-eIF2α and DAPI. Immunofluorescence of HEK cells was quantified using the Synergy HTX Multimode Reader. For further details regarding the culturing of HEK cells, see SI Appendix. […]\nHuma n e mbryon ic kidn ey (HEK) 293T ce lls (ATCC # C RL- 321 6) were ge nerously dona ted by th e Ca mpb ell Lab (UT Dallas). Cell stock s were previously fr ozen at 1 million cells/ml in 90% fetal bov ine s erum (F BS, ThermoFisher #SH300880340) and 10% DMSO. Cells were grown in complete medium (10% FBS, 1% Pen- Strep in DMEM/F12 + GlutaMax (Gibco #10565- 018) in T-75 flasks (Greiner Bio- One #658175). Cells were maintained at 37 °C with 5% CO2 and passaged twice before being plated onto either 96-well or 6-well plates for ICC/spectrophotometry and western blotting, respectively. Cells were counted using the TC20 automated cell counter (Bio- R ad #1450102) using a 1:1 dilution of trypan blue (Gibco #15250061).\nIn a 9 6-well p lat e (Therm oFisher #16 530 5), cells were p late d at a de nsity of 20,0 00 cells per w ell a nd gro wn to rou gh ly 65 % conf lu ency before be in g tre ate d w ith F EM- 16 89. For 2 h our F EM- 1689 trea tme nt, HEK ce lls were plated at a density of 32,000 cells per well and treated at roughly 85% confluency. […] Immunofluorescence of HEK cells was quantif ied using the Synergy HTX Multimode Reader. […] Wells were topped with 100 µL of 1X PBS prior to being read. DAPI and p -eIF2α reads were performed at bottom with a gain of 3 5 a nd 45, r espective ly. […]\nfluorescence units (RFUs) of the negative controls were subtracted from each well. P-eIF2α fluorescence was normalized to DAPI in order to control for the number of cells present in the well and then to the fluoresce nce of th e veh icle t reatme nt as a p ercenta ge. […]", "note": "pIC50: −log10 of the molar value.", "data": [{"smiles": "OCCCN1CC[C@@H]2C[C@H]1c1cc(-c3ccc(C(F)(F)F)cc3)ccc12", "note": "[FEM-1689]", "values": [{"measurement": "pIC50", "setting": "2 h treatment", "result": 8.23}, {"measurement": "pIC50", "setting": "16 h treatment", "result": 9.13}, {"measurement": "pIC50", "setting": "Homo sapiens, HEK-293T, 2 h, 2 h treatment", "result": 8.23}, {"measurement": "pIC50", "setting": "Homo sapiens, HEK-293T, 16 h, 16 h treatment", "result": 9.15}]}]}
